These results are taken from the supplement of paper PMC11061612.

The test system of experiment [1] is LXF-289 (Lung Adenocarcinoma). The experiment in a line: Bliss excess, mean over the matrix (fraction); higher = more synergy. The method in brief:
(§1)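 Cell lines in DMEM/F12 or RPMI with 10% FBS were plated in 1536-well plates, held 24 hours at 37°C, 5% CO2, then given two-drug dose matrices for 72 hours (DMSO typically 0.2%). Viability was read by CellTiter-Glo 2.0 luminescence and scaled as inhibition from 0 (vehicle wells) to 1 (blank wells). Combination Emax is the second-highest inhibition in the matrix; Bliss excess is observed combination effect minus expected EA + EB − EA·EB, EA and EB being single-agent effects.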

Experiment [2] deals with HSC-39 (Gastric Carcinoma). The description is as above. A digest of the protocol:
as §1

For experiment [3], the system named is NCI-H446 (Small Cell Lung Carcinoma). The description is as above. The method in brief:
as §1

The subject of experiment [4] is NB12 (Neuroblastoma). Described as above. A digest of the protocol: as §1
The test system of experiment [5] is SK-MEL-2 (Melanoma). The description is as above. The method in brief: as §1
The test system of experiment [6] is L-1236 (Hodgkin's Lymphoma). Described as above. The method in brief: as §1
For experiment [7], the system named is OPM-2 (Plasma Cell Myeloma). The experiment is described as above. The method in brief:
as §1

The test system of experiment [8] is FADU (Head and Neck Carcinoma). The experiment is described as above. A digest of the protocol: as §1
In experiment [9] the test system is NB12 (Neuroblastoma). The experiment in a line: combination Emax (second highest fraction inhibited in the dose matrix, 72 h); higher = more inhibition; extreme values may be limits of the assay. The method in brief: as §1
Experiment [10] has as its system SK-MEL-2 (Melanoma). The description is as above. The method in brief: as §1
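Throughout, for Bliss excess, mean over the matrix: after 72 h of two-drug dosing.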

Consider `CC(=O)c1c(C)c2cnc(Nc3ccc(N4CCNCC4)cn3)nc2n(C2CCCC2)c1=O` [Palbociclib] + Cc1c2c(nn1C)CSCc1cc(n(C)n1)CSc1cc(c3ccccc3c1)OCCCc1c(C(=O)O)n(C)c3c-2c(Cl)ccc13 [AZD5991] (first compound max 10 µM, 7x7, partner max 1 µM), for which the Bliss excess is 0.008 in experiment [1]; -0.0383 in experiment [2]; 0.0062 in experiment [3]; 0.0159 with NB12 (Neuroblastoma) [4]; -0.045 in the experiment on SK-MEL-2 (Melanoma) [5]; -0.0341 in experiment [6]. For the same molecule, the Bliss excess in [7] is 0.0009; in experiment [8] it was -0.126. The “combination Emax” value came to 0.357 with NB12 (Neuroblastoma) [9] and 0.905 in the experiment with SK-MEL-2 (Melanoma) [10].
In the case of `CC(=O)c1c(C)c2cnc(Nc3ccc(N4CCNCC4)cn3)nc2n(C2CCCC2)c1=O` [Palbociclib] + Cn1cnc2c(F)c(Nc3ccc(Br)cc3Cl)c(C(=O)NOCCO)cc21 [Selumetinib] (first compound max 10 µM, 7x7, partner max 10 µM), the Bliss excess in experiment [1] was -0.0054; in experiment [2] it was -0.0069; in [3], -0.0689; with NB12 (Neuroblastoma) [4] it was 0.0177; with SK-MEL-2 (Melanoma) [5], 0.0374; in experiment [6] it was -0.0841. For the same molecule, the Bliss excess in experiment [7] was 0.0343; in experiment [8], 0.115. The entries for the “combination Emax” value in the experiment with NB12 (Neuroblastoma) [9] and with SK-MEL-2 (Melanoma) [10] were 0.276 and 0.805, respectively.
Regarding `C[C@@H](c1ccc2nccn2c1)n1nnc2ncc(-c3cnn(C)c3)nc21` [Savolitinib] + CC1(C)CCC(CN2CCN(c3ccc(C(=O)NS(=O)(=O)c4ccc(NCC5CCOCC5)c([N+](=O)[O-])c4)c(Oc4cnc5[nH]ccc5c4)c3)CC2)=C(c2ccc(Cl)cc2)C1 [Venetoclax] (first compound max 1 µM, 7x7, partner max 1 µM), the Bliss excess was -0.0339 in experiment [1]; 0.0096 in experiment [2]; 0.0246 in experiment [3]; -0.0062 in the experiment on NB12 (Neuroblastoma) [4]; -0.0295 in the experiment with SK-MEL-2 (Melanoma) [5]; 0.0176 in [6]. Also, the Bliss excess in experiment [7] is 0.0324; in experiment [8], -0.107. For the same molecule, the “combination Emax” value was determined as 0.641 in the experiment on NB12 (Neuroblastoma) [9] and 0.14 in the experiment on SK-MEL-2 (Melanoma) [10].
Regarding `C[C@@H](c1ccc2nccn2c1)n1nnc2ncc(-c3cnn(C)c3)nc21` [Savolitinib] + Cc1c2c(nn1C)CSCc1cc(n(C)n1)CSc1cc(c3ccccc3c1)OCCCc1c(C(=O)O)n(C)c3c-2c(Cl)ccc13 [AZD5991] (first compound max 1 µM, 7x7, partner max 1 µM), the Bliss excess in experiment [1] was 0.0178; in experiment [2], -0.0133; in experiment [3], 0.0471; with NB12 (Neuroblastoma) [4] it was -0.0075; in the experiment with SK-MEL-2 (Melanoma) [5] it was -0.023; in experiment [6], -0.0017. Besides, the Bliss excess is -0.0413 in experiment [7] and -0.0687 in experiment [8]. In addition, the “combination Emax” value was determined as 0.219 in the experiment with NB12 (Neuroblastoma) [9] and 0.901 with SK-MEL-2 (Melanoma) [10].
Turning to `Cn1cnc2c(F)c(Nc3ccc(Br)cc3Cl)c(C(=O)NOCCO)cc21` [Selumetinib] + C=CCn1c(=O)c2cnc(Nc3ccc(N4CCN(C)CC4)cc3)nc2n1-c1cccc(C(C)(C)O)n1 [AZD1775] (first compound max 10 µM, partner max 1 µM), the Bliss excess is -0.0547 in [1]; -0.0725 in [2]; -0.0441 in experiment [3]; -0.0517 in the experiment on NB12 (Neuroblastoma) [4]; 0.0533 in the experiment with SK-MEL-2 (Melanoma) [5]; -0.0131 in [6]. Besides, the Bliss excess was -0.0124 in experiment [7] and -0.0284 in experiment [8]. The “combination Emax” value in the experiment with NB12 (Neuroblastoma) [9] is 0.674; with SK-MEL-2 (Melanoma) [10] it was 0.831.
Take `Cn1cnc2c(F)c(Nc3ccc(Br)cc3Cl)c(C(=O)NOCCO)cc21` [Selumetinib] + CC(C)n1c(=O)n(C)c2cnc3cc(F)c(-c4ccc(OCCCN5CCCCC5)nc4)cc3c21 [AZD1390] (first compound max 10 µM, 7x7, partner max 0.3 µM): the Bliss excess in [1] is -0.0312; in [2], 0.0253; in experiment [3], -0.0469; in the experiment with NB12 (Neuroblastoma) [4], -0.0215; in the experiment with SK-MEL-2 (Melanoma) [5], -0.0602; in experiment [6], 0.0284. The figures for the Bliss excess in [7] and in experiment [8] were -0.0153 and -0.004, respectively. In addition, the “combination Emax” value turned out to be 0.106 in the experiment on NB12 (Neuroblastoma) [9] and 0.739 in the experiment on SK-MEL-2 (Melanoma) [10].
As for `Cn1cnc2c(F)c(Nc3ccc(Br)cc3Cl)c(C(=O)NOCCO)cc21` [Selumetinib] + CCN(CCO)CCCOc1ccc2c(Nc3cc(CC(=O)Nc4cccc(F)c4)[nH]n3)ncnc2c1 [AZD2811] (first compound max 10 µM, 7x7, partner max 1 µM), the Bliss excess in experiment [1] was 0.0253; in experiment [2] it was -0.0355; in [3], -0.0069; in the experiment with NB12 (Neuroblastoma) [4] it was -0.0881; with SK-MEL-2 (Melanoma) [5], -0.0538; in experiment [6], 0.0086. Besides, the values for the Bliss excess in experiment [7] and in experiment [8] were 0.0243 and -0.026, respectively. In addition, the results for the “combination Emax” value in the experiment with NB12 (Neuroblastoma) [9] and with SK-MEL-2 (Melanoma) [10] were 0.607 and 0.722, respectively.
On to `Cn1cnc2c(F)c(Nc3ccc(Br)cc3Cl)c(C(=O)NOCCO)cc21` [Selumetinib] + C[C@@H]1COCCN1C2=NC(=NC(=C2)C3(CC3)[S@](=N)(=O)C)C4=C5C=CNC5=NC=C4 [AZD6738] (first compound max 10 µM, 7x7, partner max 10 µM), for which the Bliss excess is -0.0165 in experiment [1]; -0.0391 in experiment [2]; 0.0036 in [3]; -0.0545 with NB12 (Neuroblastoma) [4]; -0.0161 with SK-MEL-2 (Melanoma) [5]; -0.041 in [6]. Moreover, the Bliss excess in experiment [7] is -0.0263; in experiment [8], 0.0102. Moreover, the “combination Emax” value in the experiment on NB12 (Neuroblastoma) [9] came out at 0.39; with SK-MEL-2 (Melanoma) [10], 0.806.
